# Test results taken from ChEMBL document CHEMBL1201862, “PubChem BioAssay data set” (2004).
#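 Values below derive from 48-hour exposures of cells grown in 96-well plates, with endpoints linearly interpolated between the two concentrations bracketing the appropriate inhibition level. Abbreviation: GI50, concentration required for 50% inhibition of growth.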 The source made the active and inactive calls. Rule as the data show it: active = GI50 up to about 1.1 µM and inactive = higher.
# Assays:
# Assay in all cases: growth of human tumour cells (NCI), 48 h
# 786-0 = test system: 786-0
# HCC 2998 = test system: HCC 2998
# NCI-H23 = test system: NCI-H23
# HOP-18 = test system: HOP-18
# M19-MEL = test system: M19-MEL
# OVCAR-3 = test system: OVCAR-3
# A549 = test system: A549
# TK-10 = test system: TK-10
# NCI-H460 = test system: NCI-H460
# U-251 = test system: U-251
# HCT-116 = test system: HCT-116
# SN12C = test system: SN12C
# SK-OV-3 = test system: SK-OV-3
# DMS-273 = test system: DMS-273
# SNB-19 = test system: SNB-19
# SF-268 = test system: SF-268
# M14 = test system: M14
# SF-295 = test system: SF-295
# SK-MEL-28 = test system: SK-MEL-28
# SF-539 = test system: SF-539
# HT-29 = test system: HT-29
# A498 = test system: A498
# SW-620 = test system: SW-620
# CAKI-1 = test system: CAKI-1
# IGROV-1 = test system: IGROV-1
# HOP-62 = test system: HOP-62
# DLD-1 = test system: DLD-1
# MOLT-4 = test system: MOLT-4
# HOP-92 = test system: HOP-92
# HL-60 = test system: HL-60
# OVCAR-4 = test system: OVCAR-4
# CCRF-CEM = test system: CCRF-CEM
# EKVX = test system: EKVX
# RPMI-8226 = test system: RPMI-8226
# SK-MEL-5 = test system: SK-MEL-5
# ACHN = test system: ACHN
# K562 = test system: K562
# LXFL 529 = test system: LXFL 529
# HCT-15 = test system: HCT-15
# UACC-257 = test system: UACC-257
# OVCAR-5 = test system: OVCAR-5
# UACC-62 = test system: UACC-62
# SNB-78 = test system: SNB-78
# Malme-3M = test system: Malme-3M
# KM-20L2 = test system: KM-20L2
# UO-31 = test system: UO-31
# KM12 = test system: KM12
# DMS-114 = test system: DMS-114
# COLO 205 = test system: COLO 205
# SNB-75 = test system: SNB-75
# NCI-H522 = test system: NCI-H522
# OVCAR-8 = test system: OVCAR-8
# NCI-H226 = test system: NCI-H226
# RXF 393 = test system: RXF 393
# LOX IMVI = test system: LOX IMVI
# SK-MEL-2 = test system: SK-MEL-2
# SR = test system: SR
structure (smiles),measurement,setting,value
O=C(/C=C\c1cccc2ccccc12)c1cccs1,GI50,786-0,10.7 µM (inactive)
same,GI50,HCC 2998,15.5 µM (inactive)
same,GI50,NCI-H23,16.7 µM (inactive)
same,GI50,HOP-18,10.2 µM (inactive)
same,GI50,M19-MEL,8.3 µM (inactive)
same,GI50,OVCAR-3,11.4 µM (inactive)
same,GI50,A549,16.8 µM (inactive)
same,GI50,TK-10,19 µM (inactive)
same,GI50,NCI-H460,14 µM (inactive)
same,GI50,U-251,4.43 µM (inactive)
same,GI50,HCT-116,3.03 µM (inactive)
same,GI50,SN12C,16.8 µM (inactive)
same,GI50,SK-OV-3,15.5 µM (inactive)
same,GI50,DMS-273,5.26 µM (inactive)
same,GI50,SNB-19,12.6 µM (inactive)
same,GI50,SF-268,11 µM (inactive)
same,GI50,M14,15.1 µM (inactive)
same,GI50,SF-295,15.6 µM (inactive)
same,GI50,SK-MEL-28,14.3 µM (inactive)
same,GI50,SF-539,16.9 µM (inactive)
same,GI50,HT-29,5.21 µM (inactive)
same,GI50,A498,15.6 µM (inactive)
same,GI50,SW-620,1.62 µM (inactive)
same,GI50,CAKI-1,6.31 µM (inactive)
same,GI50,IGROV-1,10.3 µM (inactive)
same,GI50,HOP-62,17.7 µM (inactive)
same,GI50,DLD-1,3.77 µM (inactive)
same,GI50,MOLT-4,5.06 µM (inactive)
same,GI50,HOP-92,11.9 µM (inactive)
same,GI50,HL-60,3.25 µM (inactive)
same,GI50,OVCAR-4,17.7 µM (inactive)
same,GI50,CCRF-CEM,2.74 µM (inactive)
same,GI50,EKVX,12.8 µM (inactive)
same,GI50,RPMI-8226,2.47 µM (inactive)
same,GI50,SK-MEL-5,13.3 µM (inactive)
same,GI50,ACHN,11.5 µM (inactive)
same,GI50,K562,2.56 µM (inactive)
same,GI50,LXFL 529,10.9 µM (inactive)
same,GI50,HCT-15,3.18 µM
same,GI50,UACC-257,13.2 µM (inactive)
same,GI50,OVCAR-5,18.7 µM (inactive)
same,GI50,UACC-62,9.95 µM (inactive)
same,GI50,SNB-78,15.1 µM (inactive)
same,GI50,Malme-3M,12.5 µM (inactive)
same,GI50,KM-20L2,10.7 µM (inactive)
same,GI50,UO-31,12.9 µM (inactive)
same,GI50,KM12,4.88 µM (inactive)
same,GI50,DMS-114,4.3 µM (inactive)
same,GI50,COLO 205,15.7 µM (inactive)
same,GI50,SNB-75,23.6 µM (inactive)
same,GI50,NCI-H522,2.52 µM (inactive)
same,GI50,OVCAR-8,7.08 µM (inactive)
CCCCCCCCCCC/C(=N/O)c1ccc(O)c2ncccc12,GI50,786-0,10.6 µM (inactive)
same,GI50,HCC 2998,5.28 µM (inactive)
same,GI50,NCI-H23,10.4 µM (inactive)
same,GI50,HOP-18,3.36 µM (inactive)
same,GI50,M19-MEL,2.11 µM (inactive)
same,GI50,A549,5.69 µM (inactive)
same,GI50,TK-10,7.35 µM (inactive)
same,GI50,NCI-H460,3.65 µM (inactive)
same,GI50,U-251,4.48 µM (inactive)
same,GI50,HCT-116,6.64 µM (inactive)
same,GI50,DMS-273,1.51 µM (inactive)
same,GI50,SNB-19,5.74 µM (inactive)
same,GI50,SF-268,2.9 µM (inactive)
same,GI50,M14,1.76 µM (inactive)
same,GI50,SF-295,2.71 µM (inactive)
same,GI50,SK-MEL-28,9.25 µM (inactive)
same,GI50,SF-539,2.02 µM (inactive)
same,GI50,HT-29,4.11 µM (inactive)
same,GI50,NCI-H226,3.22 µM (inactive)
same,GI50,SW-620,3.86 µM (inactive)
same,GI50,CAKI-1,3.16 µM (inactive)
same,GI50,HOP-62,4.26 µM (inactive)
same,GI50,DLD-1,2.75 µM (inactive)
same,GI50,HOP-92,0.275 µM (active)
same,GI50,HL-60,0.19 µM (active)
same,GI50,OVCAR-4,2.61 µM (inactive)
same,GI50,EKVX,3.52 µM (inactive)
same,GI50,RXF 393,7.67 µM (inactive)
same,GI50,SK-MEL-5,1.85 µM (inactive)
same,GI50,ACHN,2.21 µM (inactive)
same,GI50,LXFL 529,2.23 µM (inactive)
same,GI50,LOX IMVI,2.37 µM (inactive)
same,GI50,UACC-257,3.25 µM (inactive)
same,GI50,OVCAR-5,3.15 µM (inactive)
same,GI50,SNB-78,4.55 µM (inactive)
same,GI50,Malme-3M,2.47 µM (inactive)
same,GI50,KM-20L2,3.85 µM (inactive)
same,GI50,UO-31,2.8 µM (inactive)
same,GI50,KM12,6.41 µM (inactive)
same,GI50,DMS-114,2 µM (inactive)
same,GI50,COLO 205,45.9 µM (inactive)
same,GI50,SK-MEL-2,2.4 µM (inactive)
same,GI50,SNB-75,2.52 µM (inactive)
same,GI50,NCI-H522,2.31 µM (inactive)
same,GI50,OVCAR-8,4.29 µM (inactive)
O=C(Cc1ccc([N+](=O)[O-])c([N+](=O)[O-])c1CC(=O)C(=O)Nc1cc(Cl)ccc1Cl)C(=O)Nc1cc(Cl)ccc1Cl,GI50,786-0,> 100 µM (inactive)
same,GI50,HCC 2998,> 100 µM (inactive)
same,GI50,NCI-H23,> 100 µM (inactive)
same,GI50,HOP-18,> 100 µM (inactive)
same,GI50,M19-MEL,> 100 µM (inactive)
same,GI50,OVCAR-3,> 100 µM (inactive)
same,GI50,A549,> 100 µM (inactive)
same,GI50,TK-10,> 100 µM (inactive)
same,GI50,NCI-H460,72.6 µM (inactive)
same,GI50,U-251,24.2 µM (inactive)
same,GI50,HCT-116,> 100 µM (inactive)
same,GI50,SN12C,59.8 µM (inactive)
same,GI50,SK-OV-3,> 100 µM (inactive)
same,GI50,DMS-273,30.3 µM (inactive)
same,GI50,SNB-19,> 100 µM (inactive)
same,GI50,SF-268,> 100 µM (inactive)
same,GI50,M14,> 100 µM (inactive)
same,GI50,SF-295,> 100 µM (inactive)
same,GI50,SK-MEL-28,> 100 µM (inactive)
same,GI50,SF-539,> 100 µM (inactive)
same,GI50,HT-29,> 100 µM (inactive)
same,GI50,A498,> 100 µM (inactive)
same,GI50,NCI-H226,82.2 µM (inactive)
same,GI50,SW-620,37.9 µM (inactive)
same,GI50,CAKI-1,> 100 µM (inactive)
same,GI50,IGROV-1,> 100 µM (inactive)
same,GI50,HOP-62,> 100 µM (inactive)
same,GI50,DLD-1,> 100 µM (inactive)
same,GI50,MOLT-4,30 µM (inactive)
same,GI50,HOP-92,> 100 µM (inactive)
same,GI50,HL-60,> 100 µM (inactive)
same,GI50,OVCAR-4,> 100 µM (inactive)
same,GI50,SR,> 100 µM (inactive)
same,GI50,CCRF-CEM,17.9 µM (inactive)
same,GI50,EKVX,> 100 µM (inactive)
same,GI50,RXF 393,30.8 µM (inactive)
same,GI50,RPMI-8226,28 µM (inactive)
same,GI50,SK-MEL-5,> 100 µM (inactive)
same,GI50,ACHN,> 100 µM (inactive)
same,GI50,K562,33.5 µM (inactive)
same,GI50,LXFL 529,> 100 µM (inactive)
same,GI50,LOX IMVI,26.2 µM (inactive)
same,GI50,HCT-15,21.7 µM
same,GI50,UACC-257,> 100 µM (inactive)
same,GI50,OVCAR-5,> 100 µM (inactive)
same,GI50,UACC-62,> 100 µM (inactive)
same,GI50,SNB-78,80 µM (inactive)
same,GI50,Malme-3M,> 100 µM (inactive)
same,GI50,KM-20L2,> 100 µM (inactive)
same,GI50,UO-31,> 100 µM (inactive)
same,GI50,KM12,> 100 µM (inactive)
same,GI50,DMS-114,45.5 µM (inactive)
same,GI50,COLO 205,22.9 µM (inactive)
same,GI50,SK-MEL-2,> 100 µM (inactive)
same,GI50,SNB-75,> 100 µM (inactive)
same,GI50,OVCAR-8,> 100 µM (inactive)
